Source: US20230113609A1, “SSTR5 ANTAGONISTS” (Kallyope, Inc., priority 2019, published 2023)

Biological target: T1, human SSTR5 (Homo sapiens, UniProt P35346)
T1 construct: expressed in transfected cells
Test: Inositol phosphate accumulation assay (IP1 HTRF, antagonist mode)
Assay type: cell-based
Conditions: CHO-K1 cells co-expressing human SSTR5 with Gqi5, SST28 agonist at concentration generating 90% of full activation
Excerpt: CHO-K1 cells stably co-expressing human SSTR5 with Gqi5 were developed using Jump-In technology from Thermo-Fisher. Gqi5 is the mouse G alpha q protein, that was modified to interact with Gi-coupled GPCRs as described previously (Coward, P.; Chan, S. D.; Wada, H. G.; Humphries, G. M.; Conklin, B. R. Chimeric G proteins Allow a High-Throughput Signaling Assay of Gi-Coupled Receptors. Anal Biochem. 1999, 270(2),242-248).
Co-expression of Gqi5 with SSTR5 allowed monitoring of SSTR5 activity by following IP1 accumulation. The assay was performed in a 384-well plate format using the IP1 assay kit from Cis-Bio in an antagonist mode, i.e., pre-incubation with antagonist following by receptor activation by agonist at a concentration generating 90% of full activation. Frozen cells expressing human SSTR5 were thawed, washed, and then plated in DMEM supplemented with 10% FBS and non-essential amino acids. 40 μL of 2.5×10^5 cells/mL were plated on a Poly D-Lysine coated 384-well white plate. The cells were then incubated for 16 hr. at 37° C/5% CO2. After 16 hour the medium was removed, and 10 μL of stimulation buffer was added to the cells. Test compounds were dissolved in DMSO at concentrations 2000-fold that of the final assay concentrations. 7.5 nLcompound solutions were transferred to the cell plates using a Labcyte Echo® acoustic liquid handler. The plates were then incubated for 15 minutes at 37° C/5%CO2. After the first incubation, 5 μL of 30 nM SST28 were added to the cells, and the cells were incubated for 90 minutes at 37° C/5%CO2. 5 μL of detection buffer (prepared as described in the IP-1 kit) was added to each well, and the plates were incubated at RT for 1 hour.
TR-FRET was measured using a ClarioSTAR plate reader, calculating the ratio between emissions at 665 nm and 620 nm (HTRF ratio). The HTRF ratio for positive (Max) and negative (Min) controls were used to normalize HTRF data and generate values for % inhibition. IC50 and maximal inhibition values were determined using a standard 4-parameter fit.

T1 sequence (P35346 whole entry): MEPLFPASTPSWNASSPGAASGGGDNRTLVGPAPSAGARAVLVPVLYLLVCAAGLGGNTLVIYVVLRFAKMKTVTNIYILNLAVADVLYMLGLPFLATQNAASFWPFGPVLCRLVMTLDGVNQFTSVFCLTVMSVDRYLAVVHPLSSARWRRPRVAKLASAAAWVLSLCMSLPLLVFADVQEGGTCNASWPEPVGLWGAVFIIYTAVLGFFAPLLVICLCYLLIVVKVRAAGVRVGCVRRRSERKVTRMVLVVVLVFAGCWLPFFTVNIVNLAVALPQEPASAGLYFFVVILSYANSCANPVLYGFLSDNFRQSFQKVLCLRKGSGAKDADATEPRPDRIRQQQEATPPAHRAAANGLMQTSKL

Row | Compound | IC50 [nM]
1 | CCOc1cc(-c2ccc(F)cc2)c(C2CC2)cc1CN1CCC2(CC1)CN(c1ccc(C(=O)NCCOCCOCCO)cc1)C(=O)N2 [Example 70, 4-(8-((2-cyclopropyl-5-ethoxy-4′-fluoro-[1,1′-biphenyl]-4-yl)methyl)-2-oxo-1,3,8-triazaspiro[4.5]decan-3-yl)-N-(2-(2-(2-hydroxyethoxy)ethoxy)ethyl)benzamide] | ≤ 100
2 | CCOc1cc(-c2ccc(F)cn2)c(C2CC2)cc1CN1CCC2(CC1)CN(c1ccc(S(=O)(=O)NCCOCCO)cc1)C(=O)O2 [Example 82, 4-(8-(5-cyclopropyl-2-ethoxy-4-(5-fluoropyridin-2-yl)benzyl)-2-oxo-1-oxa-3,8-diazaspiro[4.5]decan-3-yl)-N-(2-(2-hydroxyethoxy)ethyl)benzenesulfonamide] | ≤ 100
3 | CCOc1cc(C(=O)OC)c(C2CC2)cc1CN1CCN(C(=O)Nc2ccc(C(=O)NC[C@H](O)[C@@H](O)[C@H](O)[C@H](O)CO)cc2)CC1 [compound 93, methyl 2-cyclopropyl-5-ethoxy-4-[[4-[[4-[[(2S,3R,4R,5R)-2,3,4,5,6-pentahydroxyhexyl]carbamoyl]phenyl]carbamoyl]piperazin-1-yl]methyl]benzoate] | 1000 to 5000
4 | CCOc1cc(C(=O)OC)c(C2CC2)cc1CN1CCC2(CC1)CC(=O)N(c1ccc(C(=O)N3CCC(S(N)(=O)=O)CC3)cc1)C2 [Example 52, methyl 2-cyclopropyl-5-ethoxy-4-((3-oxo-2-(4-(4-sulfamoylpiperidine-1-carbonyl)phenyl)-2,8-diazaspiro[4.5]decan-8-yl)methyl)benzoate] | 100 to 1000
5 | CCOc1cc(C(=O)OC)c(C2CC2)cc1CN1CCC2(CC1)CC(=O)N(c1ccc(C(=O)NCCCP(C)(=O)O)cc1)C2 [Example 33, (3-(4-(8-(5-cyclopropyl-2-ethoxy-4-(methoxycarbonyl)benzyl)-3-oxo-2,8-diazaspiro[4.5]decan-2-yl)benzamido)propyl)(methyl)phosphinic acid] | > 5000
6 | CCOc1cc(-c2ccc(F)cc2)c(C2CC2)cc1CN1CCC2(CC1)CN(c1ccc(C(=O)NCCOCCO)cc1)C(=O)N2 [compound 65, 4-(8-((2-cyclopropyl-5-ethoxy-4′-fluoro-[1,1′-biphenyl]-4-yl)methyl)-2-oxo-1,3,8-triazaspiro[4.5]decan-3-yl)-N-(2-(2-hydroxyethoxy)ethyl)benzamide] | ≤ 100
7 | CCOc1cc(C(=O)OC)c(C2CC2)cc1CN1CCC2(CC1)CN(c1ccc(C(=O)NCCCNC(N)=O)cc1)C(=O)N2 [Example 77, methyl 2-cyclopropyl-5-ethoxy-4-((2-oxo-3-(4-((3-ureidopropyl)carbamoyl)phenyl)-1,3,8-triazaspiro[4.5]decan-8-yl)methyl)benzoate] | > 5000
8 | CCOc1cc(C(=O)OC)c(C2CC2)cc1CN1CCC2(CC1)CC(=O)N(c1ccc(C(=O)NCCNC(=O)NC(CO)(CO)CO)cc1)C2 [Example 18, methyl 2-cyclopropyl-4-((2-(4-((2-(3-(1,3-dihydroxy-2-(hydroxymethyl)propan-2-yl)ureido)ethyl)carbamoyl)phenyl)-3-oxo-2,8-diazaspiro[4.5]decan-8-yl)methyl)-5-ethoxybenzoate] | 100 to 1000
9 | CCOc1cc(C(=O)OC)c(C2CC2)cc1CN1CCC2(CC1)CC(=O)N(c1ccc(C(=O)NCCCC(=O)O)cc1)C2 [Example 23, 4-(4-(8-(5-cyclopropyl-2-ethoxy-4-(methoxycarbonyl)benzyl)-3-oxo-2,8-diazaspiro[4.5]decan-2-yl)benzamido) butanoic acid] | > 5000
10 | CCOc1cc(C(=O)OC)c(C2CC2)cc1CN1CCC2(CC1)CC(=O)N(c1ccc(C(=O)N(C)CCCC(=O)O)cc1)C2 [Example 41, 4-(4-(8-(5-cyclopropyl-2-ethoxy-4-(methoxycarbonyl)benzyl)-3-oxo-2,8-diazaspiro[4.5]decan-2-yl)-N-methylbenzamido)butanoic acid] | > 5000
11 | CCOc1cc(CN2CCC3(CC2)CN(c2ccc(C(=O)NC[C@H](O)[C@@H](O)[C@H](O)[C@H](O)CO)cc2)C(=O)O3)cc(OCC)c1-c1ccc(F)cc1 [Example 4, 4-(8-((2,6-diethoxy-4′-fluoro-[1,1′-biphenyl]-4-yl)methyl)-2-oxo-1-oxa-3,8-diazaspiro[4.5]decan-3-yl)-N-((2S,3R,4R,5R)-2,3,4,5,6-pentahydroxyhexyl)benzamide] | 100 to 1000
12 | CCOc1cc(CN2CCC3(CC2)CN(c2ccc(C(=O)NCCNC(=O)NC(CO)(CO)CO)cc2)C(=O)O3)cc(OCC)c1-c1ccc(F)cc1 [Example 7, 4-(8-((2,6-diethoxy-4′-fluoro-[1,1′-biphenyl]-4-yl)methyl)-2-oxo-1-oxa-3,8-diazaspiro[4.5]decan-3-yl)-N-(2-(3-(1,3-dihydroxy-2-(hydroxymethyl)propan-2-yl)ureido)ethyl)benzamide] | ≤ 100
13 | CCOc1cc(-c2ccc(F)cn2)c(C2CC2)cc1CN1CCC2(CC1)CN([C@H]1CC[C@@](C)(C(=O)NCCCS(=O)(=O)O)CC1)C(=O)O2 [compound 88] | 100 to 1000
14 | CCOc1cc(-c2ccc(F)cc2)c(C2CC2)cc1CN1CCC2(CC1)CN(c1ccc(C(=O)NCCCS(N)(=O)=O)cc1)C(=O)O2 [Example 64, 4-(8-((2-cyclopropyl-5-ethoxy-4′-fluoro-[1,1′-biphenyl]-4-yl)methyl)-2-oxo-1-oxa-3,8-diazaspiro[4.5]decan-3-yl)-N-(3-sulfamoylpropyl)benzamide] | ≤ 100
15 | CCOc1cc(C(=O)OC)c(C2CC2)cc1CN1CCC2(CC1)CC(=O)N(c1ccc(C(=O)NCCCCS(N)(=O)=O)cc1)C2 [Example 51, methyl 2-cyclopropyl-5-ethoxy-4-((3-oxo-2-(4-((4-sulfamoylbutyl)carbamoyl)phenyl)-2,8-diazaspiro[4.5]decan-8-yl)methyl)benzoate] | 100 to 1000
16 | CCOc1cc(C(=O)OC)c(C2CC2)cc1CN1CCC2(CC1)CN(c1ccc(C(=O)NCCCS(N)(=O)=O)cc1)C(=O)N2 [Example 79, methyl 2-cyclopropyl-5-ethoxy-4-((2-oxo-3-(4-((3-sulfamoylpropyl)carbamoyl)phenyl)-1,3,8-triazaspiro[4.5]decan-8-yl)methyl)benzoate] | 100 to 1000
17 | CCOc1cc(-c2ccc(F)cc2)c(C2CC2)cc1CN1CCC2(CC1)CN(c1ccc(C(=O)NC[C@H](O)[C@@H](O)[C@H](O)[C@H](O)CO)cc1)C(=O)O2 [Example 60, 4-(8-((2-cyclopropyl-5-ethoxy-4′-fluoro-[1,1′-biphenyl]-4-yl)methyl)-2-oxo-1-oxa-3,8-diazaspiro[4.5]decan-3-yl)-N-((2S,3R,4R,5R)-2,3,4,5,6-pentahydroxyhexyl)benzamide] | ≤ 100
18 | CCOc1cc(C(=O)OC)c(C2CC2)cc1CN1CCC2(CC1)CC(=O)N(c1ccc(C(=O)NCC[N+](C)(C)C)cc1)C2 [Example 22, 2-(4-(8-(5-cyclopropyl-2-ethoxy-4-(methoxycarbonyl)benzyl)-3-oxo-2,8-diazaspiro[4.5]decan-2-yl)benzamido)-N,N,N-trimethylethan-1-aminium] | 1000 to 5000
19 | CCOc1cc(-c2ccc(F)cc2)c(C2CC2)cc1CN1CCC2(CC1)CN(c1ccc(C(=O)NCCOC(CO)CO)cc1)C(=O)N2 [Example 73, 4-(8-((2-cyclopropyl-5-ethoxy-4′-fluoro-[1,1′-biphenyl]-4-yl)methyl)-2-oxo-1,3,8-triazaspiro[4.5]decan-3-yl)-N-(2-((1,3-dihydroxypropan-2-yl)oxy)ethyl)benzamide] | ≤ 100
20 | CCOc1cc(C(=O)OC)c(C2CC2)cc1CN1CCC2(CC1)CN(c1ccc(C(=O)NCCOCCO)cc1)C(=O)O2 [Example 56, methyl 2-cyclopropyl-5-ethoxy-4-((3-(4-((2-(2-hydroxyethoxy)ethyl)carbamoyl)phenyl)-2-oxo-1-oxa-3,8-diazaspiro[4.5]decan-8-yl)methyl)benzoate] | ≤ 100
21 | CCOc1cc(-c2ccc(F)cc2)c(C2CC2)cc1CN1CCC2(CC1)CN(c1ccc(C(=O)NCCCS(=O)(=O)O)cc1)C(=O)N2 [Example 66, 3-(4-(8-((2-cyclopropyl-5-ethoxy-4′-fluoro-[1,1′-biphenyl]-4-yl)methyl)-2-oxo-1,3,8-triazaspiro[4.5]decan-3-yl)benzamido)propane-1-sulfonic acid] | ≤ 100
22 | CCOc1cc(C(=O)OC)c(C2CC2)cc1CN1CCN(C(=O)Oc2cccc(C(=O)NC[C@H](O)[C@@H](O)[C@H](O)[C@H](O)CO)c2)CC1 [Example 98] | 100 to 1000
23 | CCOc1cc(CN2CCC3(CC2)CN(c2ccc(C(=O)NCCCC(=O)NCCO)cc2)C(=O)O3)cc(OCC)c1-c1ccc(F)cc1 [compound 1, 4-(8-((2,6-diethoxy-4′-fluoro-[1,1′-biphenyl]-4-yl)methyl)-2-oxo-1-oxa-3,8-diazaspiro [4.5]decan-3-yl)-N-(4-((2-hydroxyethyl)amino)-4-oxobutyl)benzamide] | 100 to 1000
24 | CCOc1cc(C(=O)OC)c(C2CC2)cc1CN1CCN(C(=O)Oc2ccc(C(=O)NC[C@H](O)[C@@H](O)[C@H](O)[C@H](O)CO)cc2)CC1 [Example 96] | 100 to 1000
